The values that follow are results of earlier work, collected in US6346270B1, “Phenytoin therapy” (Alza Corporation, priority 1997, dated 2002).

Each structure is given as a SMILES string.

As to `O=C1NC(=O)C(c2ccccc2)(c2ccccc2)N1` [phenytoin], the “solubility in aqueous fluids” value is recorded as “poorly soluble”.
